BindingDB's records for patent US20250127800 (Signet Therapeutics, 2025)

target: Focal adhesion kinase 1 (Homo sapiens, UniProt Q05397); assay: In Vitro Enzymatic Inhibitory Activity Assay
Sequence (Q05397 whole entry): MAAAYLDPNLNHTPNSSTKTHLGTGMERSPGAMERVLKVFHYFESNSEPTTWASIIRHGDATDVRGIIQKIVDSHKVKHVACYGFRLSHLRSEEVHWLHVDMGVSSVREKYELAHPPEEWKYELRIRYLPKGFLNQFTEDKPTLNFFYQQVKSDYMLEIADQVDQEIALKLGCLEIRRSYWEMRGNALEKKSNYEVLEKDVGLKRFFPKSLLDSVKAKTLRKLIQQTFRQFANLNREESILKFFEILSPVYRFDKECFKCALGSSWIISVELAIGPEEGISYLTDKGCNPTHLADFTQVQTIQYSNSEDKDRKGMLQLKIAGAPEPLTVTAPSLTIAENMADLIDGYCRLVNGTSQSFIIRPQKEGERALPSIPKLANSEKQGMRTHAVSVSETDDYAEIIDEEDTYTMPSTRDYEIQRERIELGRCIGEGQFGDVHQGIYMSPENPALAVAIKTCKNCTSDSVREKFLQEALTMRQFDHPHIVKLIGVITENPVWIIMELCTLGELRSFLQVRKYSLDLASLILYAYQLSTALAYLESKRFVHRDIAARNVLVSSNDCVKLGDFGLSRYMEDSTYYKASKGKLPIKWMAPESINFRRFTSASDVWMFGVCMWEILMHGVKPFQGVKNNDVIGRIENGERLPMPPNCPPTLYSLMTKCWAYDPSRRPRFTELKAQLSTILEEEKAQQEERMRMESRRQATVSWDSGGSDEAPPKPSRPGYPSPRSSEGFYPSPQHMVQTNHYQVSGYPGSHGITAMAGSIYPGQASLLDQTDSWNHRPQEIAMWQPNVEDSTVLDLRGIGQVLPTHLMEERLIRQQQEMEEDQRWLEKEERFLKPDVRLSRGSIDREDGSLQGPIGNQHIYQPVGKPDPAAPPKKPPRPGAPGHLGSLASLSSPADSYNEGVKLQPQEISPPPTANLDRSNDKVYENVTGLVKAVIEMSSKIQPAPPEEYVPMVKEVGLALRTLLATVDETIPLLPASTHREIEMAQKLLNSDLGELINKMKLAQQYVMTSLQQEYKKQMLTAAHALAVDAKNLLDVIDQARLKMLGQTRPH

`C=CC(=O)N1CCC(NC(=O)c2ccc(Nc3ncc(C(F)(F)F)c(NCc4nccnc4N(C)S(C)(=O)=O)n3)c(OC)c2)C1` (stereo unspecified) [US20250127800, Example 2] and `C=CC(=O)N1CCCC(NC(=O)c2ccc(Nc3ncc(C(F)(F)F)c(NCc4nccnc4N(C)S(C)(=O)=O)n3)c(OC)c2)C1` (stereo unspecified) [US20250127800, Example 3] are within 1.5-fold of each other in IC50: 1.18 nM for the first, 1.59 nM for the second.

Going from `C=C(C)C(=O)N1CCCC(c2cccc(NCc3ccc(Nc4ncc(C(F)(F)F)c(Nc5ccccc5C(=O)NC)n4)cc3)c2)C1` (stereo unspecified) [US20250127800, Example 24] to `C=CC(=O)N1CCCC(c2cccc(NCc3ccc(Nc4ncc(Cl)c(Nc5ccccc5C(=O)NC)n4)cc3)c2)C1` (stereo unspecified) [US20250127800, Example 15], the IC50 rises from 2.93 nM to 7.84 nM (2.7-fold). The first is the more potent here.

Going from `C=CC(=O)NC1CCC(CNC(=O)c2ccc(Nc3ncc(C(F)(F)F)c(NCc4nccnc4N(C)S(C)(=O)=O)n3)c(OC)c2)CC1` (stereo unspecified) [US20250127800, Example 5] to `C=CC(=O)N1CCCC(c2cccc(NCc3ccc(Nc4ncc(C(F)(F)F)c(Nc5ccccc5C(=O)NC)n4)c(OC)c3)c2)C1` (stereo unspecified) [US20250127800, Example 12], the IC50 rises from 0.9 nM to 3.41 nM (3.8-fold).
